Laboratory results published in US8791132B2, “Compounds and methods for treatment of hypertension” (Medivation Technologies, Inc., priority 2011, dated 2014).
Several values for one entry are separate records, joined by “and”; a condition that tells them apart may be missing. Identical values can stand only once. Like-named read-outs stand apart in the source and are kept apart here.

How the values were obtained:
[1] = tested on: SH-SY5Y cells over-expressing α-syn; experiment: Cell viability (MTS reduction) in SH-SY5Y cells over-expressing α-synuclein; assay type: cell-based; conditions: Homo sapiens, 336 h, α-syn over-expression (−dox), compounds at 0.1 nM, +dox control = 100, 14 days, read-out: Relative cell viability protection
Experimental: Cell Culture. SH-SY5Y cells stably transfected with a doxycyline-inducible wild-type α-synuclein (α-syn) gene along with control SH-SY5Y cells over-expressing the β-galactosidase (β-gal) gene (a gift from L. Stefanis, Division of Basic Neurosciences, Biomedical Research Foundation of the Academy of Athens, Athens, Greece) are cultured as described by Vekrellis et al. (Vekrellis K, Xilouri M, Emmanouilidou E, Stefanis L. (2009). Inducible over-expression of α-syn in human neuronal cells leads to caspase-dependent non-apoptotic death. J Neurochem 109, 1348-1362). In accordance with this method, cells are cultured and maintained in RPMI 1640, 10% fetal bovine serum supplemented with 250 μg/mL G418 and 50 μg/mL Hygromycin B. Expression of α-syn is switched off in stock cultures with doxycycline (2 μg/mL). For experimental procedures, cells are plated at (4−8×10^4 cells/cm^2) and differentiated in absence of doxycycline and in the presence of 20 μM all-trans retinoic acid (RA) (Sigma, St Louis, Mo., USA).
Viability Assay: Cells are cultured in 96-well plates. After 24 h, cells are treated with RA and Compounds of Invention at 0.1 and 10 nM in the absence of doxycyline. Culture medium with RA and drugs is fully replaced after 7 days. Cell viability is measured by the release of lactate dehydrogenase (LDH) from necrotic cells into the culture medium and by measuring the capacity of cells to metabolize MTS tetrazolium (MTS) after 14 days in culture. LDH leakage is assessed according to the Cytotoxicity Detection KitPlus (Roche, Mannheim, Germany) and MTS reduction is assessed by the CellTiter 96® AQueous One Solution Cell Proliferation assay (Promega Corporation, Madison, Wis., USA).
Assay results for the experiments with α-syn over-expression are presented as the MTS reduction capacity (cell viability) of control cells (+dox), cells over-expressing α-syn (−dox), and cells over-expressing α-syn incubated with Compounds of the Invention at 0.1 nM (FIG. 18A) or 10 nM (FIG. 18B).

[2] = tested on: spontaneously hypertensive rats (SHR); experiment: Blood pressure in spontaneously hypertensive rat (SHR) model of hypertension; assay type: in vivo
Experimental: Male spontaneously hypertensive rats (SHR), approximately 3 months of age and weighting approximately 250 grams were utilized. Free access to standard lab chow for rats and reverse osmosis (RO) water was granted. All aspects of this work, including housing, experimentation and disposal of animals were performed in general accordance with the Guide for the Care and Use of Laboratory Animals (National Academy Press, Washington, D.C., 1996).
The animals were anaesthetized with sodium pentobarbital (50 mg/kg IP). The left carotid artery when compound dosed orally (PO) or subcutaneously (SC); and both left carotid and femoral artery when compound dosed intravenous (i.v.) were cannulated with a polyethylene catheter (38 cm in length; PE60, Portex, Ltd.) connected with a polyurethane tubing (12 cm in length; PU-40, Cat. #BB520-40, Scientific Commodities, Inc.), which was tunneled under the skin and exited through the nape of the neck. The arterial cannula was connected to a pressure transducer through a swivel system, allowing free roaming during continuous recording of mean arterial pressure and heart rate. The animals were housed individually with food and water freely available during recovery. On the following day, the arterial cannula was connected via a Statham (P 23×L) pressure transducer to a NEC/San-Ei amplifier and data acquisition and analysis system (Power Lab 8/SP) for direct mean arterial pressure and heart rate measurements.
The test compounds, dissolved in sterile saline, were administered subcutaneously (SC) or orally (PO), or by intravenous (i.v.) bolus administration in two minutes or the escalating doses of compound administration in every 30 minutes, with each dose and its strength delivered over 2 minutes as shown in the respective figures; the internal standard phentolamine was given by oral gavage. The control group received vehicle alone. Immediately before (−10 min and −5 min) and at 15 min, 30 min, 1 hr, 1.5 hr, 2 hr, 2.5 hr, 3 hr, 3.5 hr, and 4 hr post-dosing, systolic pressure blood pressure values were recorded.

[3] = target: T1, rat adrenergic α1B receptor (Rattus norvegicus, UniProt P15823); experiment: Radioligand binding, adrenergic α1B ([3H]Prazosin); conditions: for Percentage inhibition of ligand binding, Adrenergic α1B / inhibition at 0.03 µM / inhibition at 0.1 µM / Percentage inhibition of ligand binding, Adrenergic α1B (0.03 μM) / Percentage inhibition of ligand binding, Adrenergic α1B (0.1 μM): [3H]Prazosin
T1 construct: rat adrenergic α1B receptor obtained from Wistar Rat liver; from tissue; host or cells: Wistar rat liver
T1 sequence (P15823 1-515): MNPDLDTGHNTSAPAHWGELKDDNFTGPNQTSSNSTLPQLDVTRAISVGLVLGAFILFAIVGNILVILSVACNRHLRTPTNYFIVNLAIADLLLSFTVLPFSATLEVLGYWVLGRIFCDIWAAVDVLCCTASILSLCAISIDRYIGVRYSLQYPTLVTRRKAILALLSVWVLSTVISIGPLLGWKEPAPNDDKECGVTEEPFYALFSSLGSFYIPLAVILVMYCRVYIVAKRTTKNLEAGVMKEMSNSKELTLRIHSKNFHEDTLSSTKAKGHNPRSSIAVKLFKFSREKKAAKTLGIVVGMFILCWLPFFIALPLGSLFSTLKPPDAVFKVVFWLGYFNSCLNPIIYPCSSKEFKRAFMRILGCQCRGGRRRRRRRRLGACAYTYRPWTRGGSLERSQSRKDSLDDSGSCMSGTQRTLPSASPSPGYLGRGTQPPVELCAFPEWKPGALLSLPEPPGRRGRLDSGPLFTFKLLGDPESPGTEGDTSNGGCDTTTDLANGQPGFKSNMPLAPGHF
Method in brief: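 Filter binding with Wistar rat liver α1B preparation: test compound plus 0.25 nM [3H]prazosin, 1 h at 25° C in modified Tris-HCl buffer pH 7.4.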

[4] = SC or PO, 4 hour study period (FIGS. 7-10)
[5] = compound at 0.03 μM, repeat assays, each datapoint shown, 0.03 µM
[6] = compound at 0.1 μM, repeat assays, each datapoint shown, 0.1 µM
[7] = compound at 0.03 μM, repeat assays, each datapoint shown, read-out: Percentage inhibition of ligand binding, Adrenergic α1B
[8] = compound at 0.1 μM, repeat assays, each datapoint shown, read-out: Percentage inhibition of ligand binding, Adrenergic α1B
[9] = compound at 0.03 μM, repeat datapoints each shown, 0.03 µM
[10] = compound at 0.1 μM, repeat datapoints each shown, 0.1 µM
[11] = read-out: Percentage inhibition of ligand binding, Adrenergic α1B (0.03 μM), compound at 0.03 μM, repeat datapoints each shown

| Percentage inhibition of ligand binding, Adrenergic α1B [3, 6] | inhibition at 0.03 µM [3, 7] | inhibition at 0.1 µM [3, 8] | Percentage inhibition of ligand binding, Adrenergic α1B (0.1 μM) [3, 10] | SMILES | viability at 0.0001 µM [1] | systolic blood pressure [2, 4] | other results |
| --- | --- | --- | --- | --- | --- | --- | --- |
| 50% and 55% and 57% and 61% |  |  |  | Cc1ccc2c(c1)c1c(n2CC(O)c2ccncc2)CCN(C)C1 (single isomer, unassigned) [3b] | 70.8% | lowered systolic blood pressure | Ki [3]: 51 nM; Percentage inhibition of ligand binding, Adrenergic α1B [3, 5]: 27% and 32% and 34% |
| 23% and 30% and 33% | 10% |  |  | Cc1ccc2c(c1)c1c(n2CC(C)(O)c2cccnc2)CCN(C)C1 (single isomer, unassigned) [5b, 1-(1,2,3,4-tetrahydro-2,8-dimethylpyrido[4,3-b]indol-5-yl)-2-(pyridin-3-yl)propan-2-ol] | 76.5% |  | Ki [3]: 184 nM; Percentage inhibition of ligand binding, Adrenergic α1B [3, 5]: 11% and 15% |
| 43% |  |  |  | CN1CCc2c(n(CC(O)c3ccncc3)c3ccc(Cl)cc23)C1 (single isomer, unassigned) [41a] |  | markedly lowered blood pressure |  |
|  |  |  | 60% and 66% | Cc1ccc2c(c1)c1c(n2CC(O)c2ccc(C(N)=O)nc2)CCN(C)C1 (single isomer, unassigned) [144b, 5-[2-(2,8-dimethyl-1,2,3,4-tetrahydro-pyrido[4,3-b]indol-5-yl)-1-hydroxy-ethyl]-pyridine-2-carboxylic acid amide] |  |  | systolic blood pressure ([2]; i.v. bolus in 2 minutes (FIG. 19)): marked reduction in systolic blood pressure; Percentage inhibition of ligand binding, Adrenergic α1B (0.03 μM) [3, 9]: 36%; inhibition at 0.03 µM [3, 11]: 28%; inhibition at 0.1 µM ([3]; read-out: Percentage inhibition of ligand binding, Adrenergic α1B (0.1 μM), compound at 0.1 μM, repeat datapoints each shown): 53% |
| 54% | 24% | 51% |  | Cc1ccc2c(c1)c1c(n2CC(O)c2ccncc2)CCN(C)C1 (stereo not drawn) [compound 3] |  | dose-dependent reduction in systolic blood pressure |  |

The remaining lines, values behind:

| SMILES | Percentage inhibition of ligand binding, Adrenergic α1B [3, 6] | inhibition at 0.03 µM [3, 7] | inhibition at 0.1 µM [3, 8] | Percentage inhibition of ligand binding, Adrenergic α1B (0.1 μM) [3, 10] | viability at 0.0001 µM [1] | systolic blood pressure [2, 4] | other results |
| --- | --- | --- | --- | --- | --- | --- | --- |
| CN1CCc2c(c3cc(Cl)ccc3n2CC(O)c2ccncc2)C1 (single isomer, unassigned) [4a] | 57% | 25% | 52% |  | 73.4% |  |  |
| Cc1ccc2c(c1)c1c(n2CC(O)c2ccncc2)CCNC1 (single isomer, unassigned) [39a, 2-(8-methyl-1,2,3,4-tetrahydro-pyrido[4,3-b]indol-5-yl)-1-pyridin-4-yl-ethanol] | 33% | 9% | 38% |  | 72.5% |  |  |
| Cc1ccc2c(c1)c1c(n2CC(O)c2ccncc2)CCN2CCCC12 (single isomer, unassigned) [129d] |  |  |  | 94% and 99% |  |  | heart rate ([2]; oral or iv bolus or i.v. escalating doses): tachycardia; effects on systolic blood pressure ([2]; oral or iv bolus or i.v. escalating doses (FIGS. 23-25)): robust; Percentage inhibition of ligand binding, Adrenergic α1B (0.03 μM) [3, 9]: 93% |
| Cc1ccc2c(c1)c1c(n2CC(C)(O)c2cnccn2)CCN2CCCC12 (single isomer, unassigned) [176a] |  |  |  | 79% |  |  | systolic blood pressure lowering effects ([2]; escalating doses 1, 3, 10 and 30 mg/kg/iv for every 30 minutes (FIGS. 20-22)): robust; inhibition at 0.03 µM [3, 11]: 52% |
